≈ marks a conversion by molar mass, not a printed value.
Key:
[1] = Kinetic solubility; details: kinetic from dmso stock
Procedure: Kinetic solubility was measured as described in Comput Aided Mol Des 2015, 29, 795.

[2] = Metabolic stability in rat hepatocytes (rHep); details: n = 1 or geometric mean of n = 2-3
[3] = target: hFAP (M39-A757) (Homo sapiens (Human), UniProt Q12884); test: hFAP binding assay (surface plasmon resonance); details: SPR, 20° C.; for hFAP Binding assay k(off) / hFAP Binding assay k(on): single cycle kinetics; for Kd: n = 1 or geometric mean n = 2-4
[4] = Metabolic stability in human liver microsomes (HLM); details: human
Procedure: Metabolic stability in HLM was measured as described in J Comput Aided Mol Des 2015, 29, 795.

[5] = target: human Fibroblast activation protein alpha (hFAP) (Homo sapiens (Human), UniProt Q12884); test: hFAP inhibition assay (tight binders); assay type: biochemical; details: Ala-Pro-AMC 20 μM, n = 1 or geometric mean n = 2-6; note: hFAP 2.4 pM
Chain of human Fibroblast activation protein alpha (hFAP) (Q12884 38-760): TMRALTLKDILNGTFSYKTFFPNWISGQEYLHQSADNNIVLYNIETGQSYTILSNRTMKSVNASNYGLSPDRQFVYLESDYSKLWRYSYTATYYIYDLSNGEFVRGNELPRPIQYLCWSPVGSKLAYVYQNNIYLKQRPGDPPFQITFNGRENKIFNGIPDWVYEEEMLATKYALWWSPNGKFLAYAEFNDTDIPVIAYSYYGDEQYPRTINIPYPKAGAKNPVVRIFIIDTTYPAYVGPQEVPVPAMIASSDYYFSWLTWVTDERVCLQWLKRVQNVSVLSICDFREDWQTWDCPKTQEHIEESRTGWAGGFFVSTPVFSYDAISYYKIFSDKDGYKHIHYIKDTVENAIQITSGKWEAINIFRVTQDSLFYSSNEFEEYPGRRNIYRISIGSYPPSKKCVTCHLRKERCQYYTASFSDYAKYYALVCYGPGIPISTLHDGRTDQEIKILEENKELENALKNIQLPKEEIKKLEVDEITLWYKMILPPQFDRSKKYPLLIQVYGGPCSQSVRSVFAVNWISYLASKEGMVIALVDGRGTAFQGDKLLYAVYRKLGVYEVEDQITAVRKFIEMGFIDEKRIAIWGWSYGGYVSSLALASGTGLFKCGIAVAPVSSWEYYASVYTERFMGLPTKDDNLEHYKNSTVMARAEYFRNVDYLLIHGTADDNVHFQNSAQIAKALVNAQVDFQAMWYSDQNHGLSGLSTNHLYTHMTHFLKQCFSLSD
Procedure: The plates were read on a PHERAstar® reader with excitation 340 nm and emission 460 nm. Data were analyzed in Genedata Screener®. IC50 values were determined by plotting % inhibition versus log compound concentration and using a one site dose response model.

[6] = Caco-2 cell permeability; details: human
Procedure: Caco-2 cell permeability was measured as described in Mol Pharm 2017, 14, 1601.

[7] = target: Prolyl endopeptidase, Prolyl Oligopeptidase (hPREP) (Homo sapiens (Human), UniProt P48147); test: hPrep inhibition assay; assay type: biochemical; details: hPREP 0.6 nM, Z-Gly-Pro-amino-methylcoumarin 50 μM; read-out: PREP IC50
Chain of Prolyl endopeptidase, Prolyl Oligopeptidase (hPREP) (P48147 whole entry): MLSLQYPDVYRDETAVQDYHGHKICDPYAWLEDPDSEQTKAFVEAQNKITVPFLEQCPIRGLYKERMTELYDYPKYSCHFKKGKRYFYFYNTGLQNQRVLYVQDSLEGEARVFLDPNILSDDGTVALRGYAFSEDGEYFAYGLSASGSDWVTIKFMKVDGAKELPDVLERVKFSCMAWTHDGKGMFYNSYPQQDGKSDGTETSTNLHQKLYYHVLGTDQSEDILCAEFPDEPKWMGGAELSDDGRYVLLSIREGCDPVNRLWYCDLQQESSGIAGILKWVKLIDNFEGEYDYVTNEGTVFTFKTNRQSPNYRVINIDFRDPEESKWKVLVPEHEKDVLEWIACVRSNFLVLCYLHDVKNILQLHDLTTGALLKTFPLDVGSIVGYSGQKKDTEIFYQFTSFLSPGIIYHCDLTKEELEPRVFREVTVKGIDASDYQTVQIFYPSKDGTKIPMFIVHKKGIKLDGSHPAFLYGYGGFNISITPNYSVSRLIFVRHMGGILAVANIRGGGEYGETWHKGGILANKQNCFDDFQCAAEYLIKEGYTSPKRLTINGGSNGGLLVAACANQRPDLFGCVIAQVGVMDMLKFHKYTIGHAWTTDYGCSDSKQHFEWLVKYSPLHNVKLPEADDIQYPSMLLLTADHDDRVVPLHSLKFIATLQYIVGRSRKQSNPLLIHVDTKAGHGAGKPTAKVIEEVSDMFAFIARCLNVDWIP
Procedure, shortened: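 Recombinant human PREP at 0.6 nM final with Z-Gly-Pro-AMC substrate at 50 μM final in Tris-HCl pH 7.5, NaCl, Triton X-100, glutathione; 15 min rt preincubation then 20 min rt reaction in dark. AMC fluorescence (ex 340/em 460 nm); IC50 from one-site dose-response fit of % inhibition.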

[8] = Solubility, kinetic solubility, n = 1 or average of n = 2-3
[9] = HLM CLint, n = 1 or average of n = 2-3

Chain of hFAP (M39-A757) (Q12884 39-757): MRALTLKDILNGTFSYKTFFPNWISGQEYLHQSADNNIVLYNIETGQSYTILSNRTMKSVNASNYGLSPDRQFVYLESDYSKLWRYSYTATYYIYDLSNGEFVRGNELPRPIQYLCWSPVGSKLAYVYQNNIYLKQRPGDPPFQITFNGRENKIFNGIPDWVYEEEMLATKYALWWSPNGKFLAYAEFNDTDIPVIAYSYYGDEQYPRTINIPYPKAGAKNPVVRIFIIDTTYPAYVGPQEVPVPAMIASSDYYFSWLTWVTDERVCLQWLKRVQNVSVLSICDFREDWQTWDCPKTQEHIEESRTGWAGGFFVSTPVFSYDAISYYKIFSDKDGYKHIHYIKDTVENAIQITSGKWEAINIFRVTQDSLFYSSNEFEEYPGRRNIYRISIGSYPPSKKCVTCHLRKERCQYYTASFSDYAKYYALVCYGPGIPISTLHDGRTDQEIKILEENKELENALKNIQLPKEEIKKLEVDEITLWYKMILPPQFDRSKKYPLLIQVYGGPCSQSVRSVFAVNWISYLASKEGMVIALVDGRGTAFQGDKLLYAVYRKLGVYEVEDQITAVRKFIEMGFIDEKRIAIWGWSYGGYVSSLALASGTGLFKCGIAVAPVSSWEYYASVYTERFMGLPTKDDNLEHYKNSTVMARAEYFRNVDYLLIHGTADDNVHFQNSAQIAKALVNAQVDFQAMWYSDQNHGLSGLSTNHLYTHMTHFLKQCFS

| Compound | solubility [1, 8] | rHep CLint [2] | hFAP Binding assay k(off) [3] | hFAP Binding assay k(on) [3] | Kd [3] | microsomal CLint [4, 9] | IC50 [5] | Papp A→B [6] | Papp B→A [6] | efflux ratio [6] | IC50 [7] | Papp [6] | solubility [1] | microsomal CLint [4] |
| --- | --- | --- | --- | --- | --- | --- | --- | --- | --- | --- | --- | --- | --- | --- |
| C[C@@H]1CN(c2ccc3nccc(C(=O)NCC(=O)N4CSC[C@H]4C#N)c3c2)C[C@H](C)[C@@H]1O [Example 7, N-(2-((R)-4-Cyanothiazolidin-3-yl)-2-oxoethyl)-6-((3S,4S,5R)-4-hydroxy-3,5-dimethylpiperidin-1-yl)quinoline-4-carboxamide] | > 1000 µM | 2.6 μL/min/1E6 | 0.000075 s⁻¹ | 740000 M⁻¹ s⁻¹ | 0.1 nM | 31 µL/min/mg | 0.16 nM | 0.34 ×10⁻⁶ cm/s | 20 ×10⁻⁶ cm/s | 59 | 510 nM |  |  |  |
| N#C[C@@H]1CSCN1C(=O)CNC(=O)c1ccnc2ccc(N3CC4(CC(F)C4)C3)cc12 [Example 155, (R)—N-(2-(4-Cyanothiazolidin-3-yl)-2-oxoethyl)-6-(6-fluoro-2-azaspiro[3.3]heptan-2-yl)quinoline-4-carboxamide] |  | 3.2 μL/min/1E6 | 0.000050 s⁻¹ | 3100000 M⁻¹ s⁻¹ | 0.016 nM |  | 0.086 nM | 4.2 ×10⁻⁶ cm/s | 27 ×10⁻⁶ cm/s | 6.5 | 380 nM |  | 400 µM (≈ 176 µg/mL) | 19 µL/min/mg |
| CC(C)C1(O)CCN(c2ccc3nccc(C(=O)NCC(=O)N4CSC[C@H]4C#N)c3c2)CC1 [Example 192, (R)—N-(2-(4-Cyanothiazolidin-3-yl)-2-oxoethyl)-6-(4-hydroxy-4-isopropyl-piperidin-1-yl)quinoline-4-carboxamide] | 530 µM (≈ 248 µg/mL) | 2.9 μL/min/1E6 | 0.000014 s⁻¹ | 1300000 M⁻¹ s⁻¹ | 0.0077 nM | 28 µL/min/mg | 0.051 nM | 0.51 ×10⁻⁶ cm/s | 39 ×10⁻⁶ cm/s | 76 | 200 nM |  |  |  |
| CC1(C(F)F)CN(c2ccc3nccc(C(=O)NCC(=O)N4CSC[C@H]4C#N)c3c2)C1 [Example 135, (R)—N-(2-(4-Cyanothiazolidin-3-yl)-2-oxoethyl)-6-(3-(difluoromethyl)-3-methylazetidin-1-yl)quinoline-4-carboxamide] | 310 µM (≈ 138 µg/mL) | 6.8 μL/min/1E6 | 0.000023 s⁻¹ | 1700000 M⁻¹ s⁻¹ | 0.013 nM | 23 µL/min/mg | 0.11 nM | 4.4 ×10⁻⁶ cm/s | 29 ×10⁻⁶ cm/s | 6.5 | 500 nM |  |  |  |
| COC[C@@H]1[C@@H](C)OCCN1c1ccc2nccc(C(=O)NCC(=O)N3CSC[C@H]3C#N)c2c1 [Example 97, N-(2-((R)-4-Cyanothiazolidin-3-yl)-2-oxoethyl)-6-((2R,3R)-3-(methoxymethyl)-2-methylmorpholino)quinoline-4-carboxamide] | 950 µM (≈ 446 µg/mL) | 19 μL/min/1E6 | 0.000076 s⁻¹ | 690000 M⁻¹ s⁻¹ | 0.11 nM | 32 µL/min/mg | 0.23 nM | 0.52 ×10⁻⁶ cm/s | 23 ×10⁻⁶ cm/s | 45 | 890 nM |  |  |  |
| N#C[C@@H]1CSCN1C(=O)CNC(=O)c1ccnc2ccc(N3C[C@H]4C[C@@H]3CO4)cc12 [Example 76, 6-((1R,4R)-2-Oxa-5-azabicyclo[2.2.1]heptan-5-yl)-N-(2-((R)-4-cyano-thiazolidin-3-yl)-2-oxoethyl)quinoline-4-carboxamide] | > 1000 µM | 3.5 μL/min/1E6 | 0.000052 s⁻¹ | 1000000 M⁻¹ s⁻¹ | 0.051 nM | 4.2 µL/min/mg | 0.08 nM | 0.64 ×10⁻⁶ cm/s | 20 ×10⁻⁶ cm/s | 31 | 510 nM |  |  |  |
| C[C@H]1CCN(c2ccc3nccc(C(=O)NCC(=O)N4CSC[C@H]4C#N)c3c2)C1=O (single isomer, unassigned) [Example 201, N-(2-((R)-4-Cyanothiazolidin-3-yl)-2-oxoethyl)-6-((R*)-3-methyl-2-oxopyrrolidin-1-yl)quinoline-4-carboxamide] | 90 µM (≈ 38.1 µg/mL) | <1 μL/min/1E6 | 0.00010 s⁻¹ | 1800000 M⁻¹ s⁻¹ | 0.059 nM | < 3 µL/min/mg | < 0.025 nM |  |  |  | 610 nM | 4.8 ×10⁻⁶ cm/s |  |  |

The remaining molecules from weak to strong by Kd [3], led by results:

| solubility [1, 8] | rHep CLint [2] | hFAP Binding assay k(off) [3] | hFAP Binding assay k(on) [3] | Kd [3] | microsomal CLint [4, 9] | IC50 [5] | Papp A→B [6] | Papp B→A [6] | efflux ratio [6] | IC50 [7] | Papp [6] | Compound | solubility [1] | microsomal CLint [4] |
| --- | --- | --- | --- | --- | --- | --- | --- | --- | --- | --- | --- | --- | --- | --- |
| > 1000 µM | <1 μL/min/1E6 | 0.000063 s⁻¹ | 1200000 M⁻¹ s⁻¹ | 0.051 nM | < 3 µL/min/mg | 0.32 nM |  |  |  | 670 nM | 0.51 ×10⁻⁶ cm/s | CC1(O)CN(c2ccc3nccc(C(=O)NCC(=O)N4CSC[C@H]4C#N)c3c2)C1 [Example 165, (R)—N-(2-(4-Cyanothiazolidin-3-yl)-2-oxoethyl)-6-(3-hydroxy-3-methyl-azetidin-1-yl)quinoline-4-carboxamide] |  |  |
| 11 µM (≈ 5.32 µg/mL) | 32 μL/min/1E6 |  |  | 0.049 nM | 93 µL/min/mg | 0.06 nM | 1.9 ×10⁻⁶ cm/s | 32 ×10⁻⁶ cm/s | 17 | 220 nM |  | N#C[C@@H]1CSCN1C(=O)CNC(=O)c1ccnc2ccc(N3CC(F)(F)OC(F)(F)C3)cc12 [Example 5, (R)—N-(2-(4-Cyanothiazolidin-3-yl)-2-oxoethyl)-6-(2,2,6,6-tetrafluoromorpholino)quinoline-4-carboxamide] |  |  |
| 830 µM (≈ 363 µg/mL) | <1 μL/min/1E6 | 0.000064 s⁻¹ | 1900000 M⁻¹ s⁻¹ | 0.038 nM | 6.4 µL/min/mg | 0.065 nM | 0.29 ×10⁻⁶ cm/s | 19 ×10⁻⁶ cm/s | 65 | 510 nM |  | CC1(C)CCN(c2ccc3nccc(C(=O)NCC(=O)N4CSC[C@H]4C#N)c3c2)C1=O [Example 12, (R)—N-(2-(4-Cyanothiazolidin-3-yl)-2-oxoethyl)-6-(3,3-dimethyl-2-oxopyrrolidin-1-yl)quinoline-4-carboxamide] |  |  |
| > 1000 µM | <1 μL/min/1E6 | 0.000043 s⁻¹ | 1300000 M⁻¹ s⁻¹ | 0.033 nM | < 3 µL/min/mg | 0.049 nM | 0.2 ×10⁻⁶ cm/s | 10 ×10⁻⁶ cm/s | 50 | 840 nM |  | N#C[C@@H]1CSCN1C(=O)CNC(=O)c1ccnc2ccc(N3CC(N4CCOCC4)C3)cc12 [Example 122, (R)—N-(2-(4-Cyanothiazolidin-3-yl)-2-oxoethyl)-6-(3-morpholinoazetidin-1-yl)quinoline-4-carboxamide] |  |  |
| 840 µM (≈ 381 µg/mL) | <1 μL/min/1E6 | 0.000051 s⁻¹ | 2600000 M⁻¹ s⁻¹ | 0.02 nM | 11 µL/min/mg | 0.056 nM | 0.29 ×10⁻⁶ cm/s | 13 ×10⁻⁶ cm/s | 46 | 440 nM |  | CCC1(O)CCN(c2ccc3nccc(C(=O)NCC(=O)N4CSC[C@H]4C#N)c3c2)CC1 [Example 189, (R)—N-(2-(4-Cyanothiazolidin-3-yl)-2-oxoethyl)-6-(4-ethyl-4-hydroxy-piperidin-1-yl)quinoline-4-carboxamide] |  |  |
| 280 µM (≈ 119 µg/mL) | 1.4 μL/min/1E6 | 0.000053 s⁻¹ | 4600000 M⁻¹ s⁻¹ | 0.011 nM | < 3 µL/min/mg | 0.17 nM | 2.3 ×10⁻⁶ cm/s | 30 ×10⁻⁶ cm/s | 13 | 430 nM |  | CO[C@H]1CCN(c2ccc3nccc(C(=O)NCC(=O)N4CSC[C@H]4C#N)c3c2)C1 [Example 207, N-(2-((R)-4-Cyanothiazolidin-3-yl)-2-oxoethyl)-6-((S)-3-methoxy-pyrrolidin-1-yl)quinoline-4-carboxamide] |  |  |
| 930 µM (≈ 394 µg/mL) | 6.7 μL/min/1E6 | 0.000024 s⁻¹ | 2300000 M⁻¹ s⁻¹ | 0.0063 nM | 9 µL/min/mg | 0.05 nM | 0.77 ×10⁻⁶ cm/s | 17 ×10⁻⁶ cm/s | 21 | 490 nM |  | N#C[C@@H]1CSCN1C(=O)CNC(=O)c1ccnc2ccc(N3C[C@@H]4C[C@H]3CO4)cc12 [Example 75, 6-((1S,4S)-2-Oxa-5-azabicyclo[2.2.1]heptan-5-yl)-N-(2-((R)-4-cyano-thiazolidin-3-yl)-2-oxoethyl)quinoline-4-carboxamide] |  |  |

Source: patent publication US20230312550A1, “N-(2-(4-CYANOTHIAZOLIDIN-3-YL)-2-OXOETHYL)-QUINOLINE-4-CARBOXAMIDES” (AstraZeneca AB, priority 2020, published 2023)
